In assay [1] the target is T1, Papain (Carica papaya, UniProt P00784).
T1 sequence (P00784 whole entry): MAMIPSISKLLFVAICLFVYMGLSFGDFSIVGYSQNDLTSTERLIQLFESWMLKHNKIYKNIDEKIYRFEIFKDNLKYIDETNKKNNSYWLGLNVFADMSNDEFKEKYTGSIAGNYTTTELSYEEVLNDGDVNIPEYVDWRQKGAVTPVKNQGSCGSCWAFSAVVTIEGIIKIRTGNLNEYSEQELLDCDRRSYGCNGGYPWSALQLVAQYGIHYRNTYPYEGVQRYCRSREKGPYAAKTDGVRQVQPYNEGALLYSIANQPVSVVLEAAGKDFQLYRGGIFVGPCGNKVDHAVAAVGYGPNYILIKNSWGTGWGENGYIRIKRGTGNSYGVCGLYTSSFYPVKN
The assay can be described thus: Binding affinity to Carica papaya papain treated up to 2 hrs at 25 degC by Dixon plot.

Assay [2] addresses Cathepsin B (Homo sapiens, UniProt P07858). The assay can be described thus: Binding affinity to cathepsin B treated up to 2 hrs at 37degC by Dixon plot.

For the molecule `O=C(N[C@@H](Cc1ccccc1)C(=O)NCC1CO1)OCc1ccccc1` (stereo partly specified), the results for the Ki in assay [1] and in assay [2] were 390 µM and 1020 µM, respectively.

Take `COC(=O)[C@H](C)NC(=O)[C@H](C)NC(=O)C[C@@H]1O[C@H]1CNC(=O)[C@H](Cc1ccccc1)NC(=O)OCc1ccccc1`: the Ki stood at 73 µM in assay [1] and 244 µM in assay [2].

Turning to `COC(=O)[C@H](C)NC(=O)[C@H](C)NC(=O)C[C@H]1O[C@H]1CNC(=O)[C@H](Cc1ccccc1)NC(=O)OCc1ccccc1`, the Ki in assay [1] is 18 µM; in assay [2], 94 µM.

The record behind these values is ChEMBL document CHEMBL1141714, “Peptidyl epoxides extended in the P' direction as cysteine protease inhibitors: effect on affinity and mechanism of inhibition” (Bioorg Med Chem, 2008).
